Measured values taken from ChEMBL document CHEMBL1201862, “PubChem BioAssay data set” (2004).
Active and inactive are the calls of the source.

Tests used:
[1] = test system: Vero; assay: cells; type: functional, cell-based; conditions: Chlorocebus sabaeus
[2] = test system: Vero; assay: cells; type: functional; conditions: Chlorocebus sabaeus
[3] = test system: BJ; assay: BJ-TERT fibroblast viability loss – cell-based, RAS-independent, luminescence, dose response (AID 1933); type: functional; conditions: Homo sapiens
[4] = test system: BJ; assay: cells; type: functional, cell-based; conditions: Homo sapiens
[5] = test system: BJ; assay: BJ-TERT-LT-ST fibroblast viability loss – cell-based, RAS-independent, luminescence, dose response (AID 1935); type: functional; conditions: Homo sapiens;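 note: BJ fibroblasts immortalized with TERT plus LT and ST oncogenes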
[6] = DRD fibroblast viability loss – cell-based, non-viral oncogenic, luminescence, dose response (AID 1934); type: functional; conditions: Homo sapiens
[7] = biological target: T1, Endoribonuclease toxin MazF (Escherichia coli K-12, UniProt P0AE70); assay: activation of MazEF endoribonuclease cleavage – biochemical, fluorescence, single-stranded RNA substrate, uHTS hits, dose response (AID 588481); type: functional
T1 sequence (P0AE70 whole entry): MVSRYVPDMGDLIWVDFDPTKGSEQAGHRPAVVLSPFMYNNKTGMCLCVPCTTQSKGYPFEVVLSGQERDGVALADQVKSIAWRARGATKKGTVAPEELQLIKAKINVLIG

[8] = test system: BJ; assay: growth inhibition of engineered Ras-driven BJ cells – cell-based, alamar blue fluorescence, cherrypicked samples, dose response (AID 2631); type: functional; conditions: Homo sapiens;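 note: confirmatory dose-response assay in RAS-dependent BJ fibroblasts engineered with TERT, LT and ST, with cytotoxicity read by fluorescence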
[9] = test system: INS1; assay: INS-1E survival protection against cytokine death – cell-based, luminescence, retest, dose response (AID 449756); type: functional; conditions: Rattus norvegicus;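 note: cell death triggered by IL-1 beta plus TNF-alpha plus IFN-gamma mixture; protective hits raise ATP signal compared with cytokine alone wells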
[10] = biological target: T1, Endoribonuclease toxin MazF; assay: substrate-only fluorescence increase artefacts – biochemical, single-stranded RNase substrate, counter-screen for MazEF activator project, dose response (AID 588502); type: functional
[11] = biological target: UDP-galactopyranose mutase (Mycobacterium tuberculosis, UniProt P9WIQ1); assay: Inhibitors of Mycobacterium tuberculosis UDP-galactopyranose mutase (UGM) enzyme Measured in Biochemical System Using Plate Reader - 2105-02_Inhibitor_Dose_CherryPick_Activity. [Related pubchem assays (depositor defined):AID504439]
Sequence of UDP-galactopyranose mutase (P9WIQ1 whole entry): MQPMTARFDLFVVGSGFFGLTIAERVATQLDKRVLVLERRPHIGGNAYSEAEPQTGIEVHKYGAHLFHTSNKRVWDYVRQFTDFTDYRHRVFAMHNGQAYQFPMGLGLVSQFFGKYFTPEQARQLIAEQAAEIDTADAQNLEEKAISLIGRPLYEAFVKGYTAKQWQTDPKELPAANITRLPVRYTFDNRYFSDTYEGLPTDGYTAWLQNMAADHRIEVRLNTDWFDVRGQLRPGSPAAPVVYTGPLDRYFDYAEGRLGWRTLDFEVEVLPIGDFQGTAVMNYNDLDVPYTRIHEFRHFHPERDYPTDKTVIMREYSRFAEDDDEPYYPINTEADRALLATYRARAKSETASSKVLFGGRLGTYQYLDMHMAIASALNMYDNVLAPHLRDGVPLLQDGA

[12] = biological target: Keap1/Nrf2 (Homo sapiens, UniProt Q14145); assay: disruptors of Keap1 binding to Nrf2 peptide – biochemical, fluorescence polarization, cherry-picked samples, dose response (AID 588683)
Sequence of Keap1/Nrf2 (Q16236 whole entry): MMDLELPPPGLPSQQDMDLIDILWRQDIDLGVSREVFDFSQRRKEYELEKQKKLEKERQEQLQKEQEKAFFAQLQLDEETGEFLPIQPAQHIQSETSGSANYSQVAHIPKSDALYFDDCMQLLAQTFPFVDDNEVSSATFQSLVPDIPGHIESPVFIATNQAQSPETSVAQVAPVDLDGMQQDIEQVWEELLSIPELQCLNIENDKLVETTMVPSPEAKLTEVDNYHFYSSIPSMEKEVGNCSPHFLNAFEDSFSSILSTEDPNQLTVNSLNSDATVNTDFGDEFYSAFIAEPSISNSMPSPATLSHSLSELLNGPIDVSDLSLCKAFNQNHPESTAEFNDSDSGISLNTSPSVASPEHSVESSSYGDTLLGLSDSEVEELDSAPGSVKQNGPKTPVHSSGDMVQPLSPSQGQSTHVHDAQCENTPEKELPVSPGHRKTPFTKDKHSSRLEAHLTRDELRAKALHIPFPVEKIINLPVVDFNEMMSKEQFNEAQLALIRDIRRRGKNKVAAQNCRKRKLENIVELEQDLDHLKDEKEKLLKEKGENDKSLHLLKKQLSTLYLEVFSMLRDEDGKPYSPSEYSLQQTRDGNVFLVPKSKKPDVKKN
Sequence of Keap1/Nrf2 (Q14145 whole entry): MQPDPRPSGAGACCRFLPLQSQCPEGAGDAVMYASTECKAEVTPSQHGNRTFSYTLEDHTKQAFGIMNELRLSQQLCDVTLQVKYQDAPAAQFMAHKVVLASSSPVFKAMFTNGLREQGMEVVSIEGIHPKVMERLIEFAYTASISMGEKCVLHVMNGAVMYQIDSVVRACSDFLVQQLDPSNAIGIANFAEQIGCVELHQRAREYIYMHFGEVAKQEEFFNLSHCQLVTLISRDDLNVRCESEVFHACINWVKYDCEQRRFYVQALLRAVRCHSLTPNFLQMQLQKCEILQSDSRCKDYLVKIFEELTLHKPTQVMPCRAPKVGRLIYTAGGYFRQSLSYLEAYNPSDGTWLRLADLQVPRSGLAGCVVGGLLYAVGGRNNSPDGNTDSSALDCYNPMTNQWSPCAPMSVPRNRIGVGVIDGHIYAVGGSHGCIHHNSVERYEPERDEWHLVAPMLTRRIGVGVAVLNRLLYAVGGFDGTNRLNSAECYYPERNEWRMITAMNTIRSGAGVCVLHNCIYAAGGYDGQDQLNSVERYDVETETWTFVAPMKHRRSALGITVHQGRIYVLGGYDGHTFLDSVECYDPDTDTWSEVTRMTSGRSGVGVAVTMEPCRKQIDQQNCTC

[13] = test system: HeLa; assay: ATP-based viability loss in HeLa cells – cell-based, CellTiter-Glo luminescence, cherry-pick samples, cytotoxicity control for MITF activator project, dose response (AID 540259); type: functional; conditions: Homo sapiens
[14] = Luminescence Cell-Based Dose Retest to Confirm Inhibitors of Cancer Stem Cells. [Related pubchem assays (depositor defined):AID2717, AID2721]; type: functional; conditions: Homo sapiens
[15] = biological target: ORF 73 (Human herpesvirus 8, UniProt O40947); assay: KSHV LANA DNA-binding disruption – biochemical, fluorescence polarization, cherry-picked samples, dose response (AID 504725); design: species or system Human gammaherpesvirus 8;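 note: fluorescence polarization of a labeled DNA duplex reporting LANA DNA binding; potency is for inhibitors that block LANA binding to the DNA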
Sequence of ORF 73 (O40947 whole entry): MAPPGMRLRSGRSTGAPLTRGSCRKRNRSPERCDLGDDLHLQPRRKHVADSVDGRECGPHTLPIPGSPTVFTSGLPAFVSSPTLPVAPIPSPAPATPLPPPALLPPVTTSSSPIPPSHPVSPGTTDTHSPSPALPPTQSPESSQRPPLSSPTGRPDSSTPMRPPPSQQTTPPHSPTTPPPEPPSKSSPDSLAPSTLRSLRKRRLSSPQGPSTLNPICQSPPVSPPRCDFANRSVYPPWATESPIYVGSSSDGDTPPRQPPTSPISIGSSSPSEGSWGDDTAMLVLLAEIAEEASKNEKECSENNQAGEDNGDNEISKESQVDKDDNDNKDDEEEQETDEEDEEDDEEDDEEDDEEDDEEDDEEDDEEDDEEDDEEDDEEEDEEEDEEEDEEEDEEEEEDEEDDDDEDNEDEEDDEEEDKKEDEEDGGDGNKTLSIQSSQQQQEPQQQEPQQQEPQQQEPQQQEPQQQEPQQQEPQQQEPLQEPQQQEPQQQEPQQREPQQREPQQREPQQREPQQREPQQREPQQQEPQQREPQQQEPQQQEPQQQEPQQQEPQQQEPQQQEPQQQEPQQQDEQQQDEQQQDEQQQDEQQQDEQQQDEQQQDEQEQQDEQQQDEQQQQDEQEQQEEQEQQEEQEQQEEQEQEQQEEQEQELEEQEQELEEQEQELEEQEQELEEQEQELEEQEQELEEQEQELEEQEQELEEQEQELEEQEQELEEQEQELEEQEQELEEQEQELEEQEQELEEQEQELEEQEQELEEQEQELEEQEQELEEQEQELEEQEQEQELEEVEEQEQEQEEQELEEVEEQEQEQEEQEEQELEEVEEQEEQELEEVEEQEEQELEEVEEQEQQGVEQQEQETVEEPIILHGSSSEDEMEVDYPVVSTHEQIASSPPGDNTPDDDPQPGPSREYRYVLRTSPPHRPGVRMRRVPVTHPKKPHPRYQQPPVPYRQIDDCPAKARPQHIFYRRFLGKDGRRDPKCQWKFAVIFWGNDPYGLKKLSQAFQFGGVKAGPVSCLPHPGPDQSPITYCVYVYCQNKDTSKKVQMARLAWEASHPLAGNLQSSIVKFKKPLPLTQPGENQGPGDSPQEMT

[16] = cells; conditions: HEK293
[17] = biological target: Beta-galactosidase (Escherichia coli, UniProt Q8VNN2); assay: PubChem AID 485352; type: functional
Sequence of Beta-galactosidase (Q8VNN2 whole entry): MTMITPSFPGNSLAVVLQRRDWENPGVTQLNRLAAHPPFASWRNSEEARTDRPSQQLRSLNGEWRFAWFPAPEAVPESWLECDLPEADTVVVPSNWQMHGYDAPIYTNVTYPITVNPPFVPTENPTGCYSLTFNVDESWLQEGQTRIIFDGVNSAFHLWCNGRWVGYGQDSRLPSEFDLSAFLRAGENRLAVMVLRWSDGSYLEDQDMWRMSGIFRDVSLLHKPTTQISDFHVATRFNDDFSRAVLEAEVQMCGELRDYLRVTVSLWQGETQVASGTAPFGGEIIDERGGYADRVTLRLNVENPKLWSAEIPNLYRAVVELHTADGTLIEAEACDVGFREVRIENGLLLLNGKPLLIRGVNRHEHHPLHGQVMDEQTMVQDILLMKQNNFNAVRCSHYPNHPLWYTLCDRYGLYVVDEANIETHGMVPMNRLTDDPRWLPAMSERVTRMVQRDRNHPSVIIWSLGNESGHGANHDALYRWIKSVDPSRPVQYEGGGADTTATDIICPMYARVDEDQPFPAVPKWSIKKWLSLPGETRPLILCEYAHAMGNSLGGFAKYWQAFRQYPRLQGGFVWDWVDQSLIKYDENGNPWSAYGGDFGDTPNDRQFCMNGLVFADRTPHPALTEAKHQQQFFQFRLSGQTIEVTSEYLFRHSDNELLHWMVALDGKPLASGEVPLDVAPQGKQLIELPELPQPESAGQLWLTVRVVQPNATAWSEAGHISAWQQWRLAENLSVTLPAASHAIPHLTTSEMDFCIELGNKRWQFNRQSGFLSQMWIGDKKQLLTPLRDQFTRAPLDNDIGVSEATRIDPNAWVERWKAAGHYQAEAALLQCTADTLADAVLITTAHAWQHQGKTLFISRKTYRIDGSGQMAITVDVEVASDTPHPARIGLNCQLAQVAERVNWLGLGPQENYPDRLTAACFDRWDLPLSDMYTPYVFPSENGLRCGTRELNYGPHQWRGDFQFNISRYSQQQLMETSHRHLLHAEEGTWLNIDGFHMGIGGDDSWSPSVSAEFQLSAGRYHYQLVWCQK

[18] = Trypanosoma cruzi growth suppression in host cells – NIH3T3 host cells, beta-gal luminescence, confirmation (AID 2044); type: functional, cell-based;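 note: intracellular parasites grown in NIH/3T3 mouse fibroblasts as host cells; luminescent beta-galactosidase reporter signal from transgenic T. cruzi replicating inside host cells; inhibitors lower the luminescence signal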
[19] = biological target: T2, Type-1 angiotensin II receptor (Homo sapiens, UniProt P30556); assay: antagonism of angiotensin II type 1 receptor – cell-based, uHTS hits, selectivity assay for APJ receptor antagonist project, dose response (AID 463214); type: functional;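 note: antagonist potency against angiotensin II stimulated AT1 response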
T2 sequence (P30556 whole entry): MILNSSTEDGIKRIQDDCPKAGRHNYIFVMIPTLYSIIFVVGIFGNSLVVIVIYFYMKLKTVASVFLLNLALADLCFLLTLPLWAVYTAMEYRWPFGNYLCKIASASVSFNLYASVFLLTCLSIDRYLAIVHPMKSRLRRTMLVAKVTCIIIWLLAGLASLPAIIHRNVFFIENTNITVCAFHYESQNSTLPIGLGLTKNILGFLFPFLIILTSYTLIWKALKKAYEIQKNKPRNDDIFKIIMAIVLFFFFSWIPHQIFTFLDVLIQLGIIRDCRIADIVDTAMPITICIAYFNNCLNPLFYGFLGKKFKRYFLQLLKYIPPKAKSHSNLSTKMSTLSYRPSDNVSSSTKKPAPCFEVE

[20] = NIH3T3 cell viability loss – ATP luminescence, mouse fibroblasts, counter-screen, dose response (AID 2010); type: functional, cell-based;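 note: cells exposed to compound for about 90 hours before reading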
[21] = test system: CHO; assay: CHO cell viability loss, potency – luminescence, cytotoxicity control for TLR9-MyD88 binding inhibitor project, dose response (AID 588339); type: functional, cell-based, hamster; conditions: Cricetulus griseus;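 note: CHO cells stably coexpressing TLR9 and MyD88 fusions from primary screen; compound exposure lasted 48 hours before viability readout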
[22] = test system: HEK293; assay: EBV LMP1 TES2 canonical NF-kB signalling blockers – cell-based, HEK293, luciferase, cherry-pick, dose response (AID 588343); type: functional; conditions: Homo sapiens
[23] = biological target: T3, Replicative DNA helicase DnaB (Mycobacterium tuberculosis, UniProt P9WMR3); assay: DnaB intein splicing inhibitors, dose response, biochemical, cell-free fluorescence (AID 449749); type: functional
T3 sequence (P9WMR3 whole entry): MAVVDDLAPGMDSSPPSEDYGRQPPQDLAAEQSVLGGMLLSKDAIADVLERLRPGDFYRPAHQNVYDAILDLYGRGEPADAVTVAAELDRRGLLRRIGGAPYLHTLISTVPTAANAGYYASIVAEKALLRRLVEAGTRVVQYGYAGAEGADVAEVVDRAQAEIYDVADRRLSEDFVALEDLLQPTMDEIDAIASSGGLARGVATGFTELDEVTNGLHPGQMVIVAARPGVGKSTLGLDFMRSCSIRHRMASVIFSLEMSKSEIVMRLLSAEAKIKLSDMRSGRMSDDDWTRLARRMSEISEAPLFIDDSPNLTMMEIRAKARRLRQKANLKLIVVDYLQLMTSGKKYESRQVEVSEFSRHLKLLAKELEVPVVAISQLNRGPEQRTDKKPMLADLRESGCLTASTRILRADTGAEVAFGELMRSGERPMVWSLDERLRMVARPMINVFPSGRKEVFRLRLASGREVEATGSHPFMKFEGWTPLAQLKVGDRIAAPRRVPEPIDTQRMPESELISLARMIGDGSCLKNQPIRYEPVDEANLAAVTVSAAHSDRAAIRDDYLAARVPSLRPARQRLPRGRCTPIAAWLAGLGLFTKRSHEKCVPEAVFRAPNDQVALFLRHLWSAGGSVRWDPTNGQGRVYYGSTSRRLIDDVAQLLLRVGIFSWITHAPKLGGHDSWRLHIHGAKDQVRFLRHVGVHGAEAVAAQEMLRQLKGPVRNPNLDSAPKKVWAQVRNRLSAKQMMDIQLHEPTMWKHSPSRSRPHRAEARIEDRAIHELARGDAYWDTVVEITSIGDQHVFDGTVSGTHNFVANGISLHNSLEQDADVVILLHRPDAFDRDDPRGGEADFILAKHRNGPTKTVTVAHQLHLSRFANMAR

[24] = biological target: T4, Protein RecA (Mycobacterium tuberculosis, UniProt P9WHJ3); assay: Fluorescence Cell-Free Homogeneous Dose Retest to Identify Inhibitors of RecA-Intein Splicing Activity. [Related pubchem assays (depositor defined):AID2097, AID2223, AID489010, AID492950]; type: functional
T4 sequence (P9WHJ3 whole entry): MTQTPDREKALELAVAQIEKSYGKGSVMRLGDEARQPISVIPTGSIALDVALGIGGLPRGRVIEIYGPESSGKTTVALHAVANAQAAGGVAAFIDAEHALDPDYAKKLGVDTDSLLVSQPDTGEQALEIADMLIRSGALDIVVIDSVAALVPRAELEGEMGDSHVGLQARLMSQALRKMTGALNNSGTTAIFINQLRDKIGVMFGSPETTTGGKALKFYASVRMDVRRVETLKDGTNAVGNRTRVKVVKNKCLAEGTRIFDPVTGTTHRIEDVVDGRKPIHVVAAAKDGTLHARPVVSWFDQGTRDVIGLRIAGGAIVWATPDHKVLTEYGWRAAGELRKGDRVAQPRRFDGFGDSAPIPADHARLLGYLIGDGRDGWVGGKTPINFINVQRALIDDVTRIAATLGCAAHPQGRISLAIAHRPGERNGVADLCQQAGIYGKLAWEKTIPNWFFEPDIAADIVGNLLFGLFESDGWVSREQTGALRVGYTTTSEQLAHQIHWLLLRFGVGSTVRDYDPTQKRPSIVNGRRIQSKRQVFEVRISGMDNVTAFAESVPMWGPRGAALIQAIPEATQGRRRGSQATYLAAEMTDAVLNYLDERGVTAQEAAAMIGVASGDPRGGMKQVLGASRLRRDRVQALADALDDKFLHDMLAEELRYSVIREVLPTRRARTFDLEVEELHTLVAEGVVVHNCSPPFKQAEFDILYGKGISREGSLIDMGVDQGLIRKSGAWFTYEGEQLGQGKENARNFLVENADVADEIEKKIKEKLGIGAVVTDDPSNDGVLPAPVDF

[25] = biological target: Beta Lactamase (Pseudomonas aeruginosa, UniProt Q932Y6); assay: BLA reporter interference, concentration series – BLA reporter cells, FRET fluorescence, artefact control for TLR9-MyD88 binding inhibitor project, dose response (AID 588341); type: cell-based;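 note: cell based assay in CHO-K1 cells stably expressing beta-lactamase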
Sequence of Beta Lactamase (Q932Y6 whole entry): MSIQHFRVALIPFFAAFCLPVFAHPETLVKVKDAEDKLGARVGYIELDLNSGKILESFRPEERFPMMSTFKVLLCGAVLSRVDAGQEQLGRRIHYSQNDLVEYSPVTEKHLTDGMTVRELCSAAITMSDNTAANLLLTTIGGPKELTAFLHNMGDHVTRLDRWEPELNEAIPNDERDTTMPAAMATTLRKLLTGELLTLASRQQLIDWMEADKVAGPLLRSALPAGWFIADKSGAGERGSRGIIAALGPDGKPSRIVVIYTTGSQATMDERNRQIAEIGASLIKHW

[26] = reduction of Shn3 3'UTR-driven luciferase in osteoblasts – cell-based, Clone20 osteoblasts, firefly luciferase, cherry-picked, dose response (AID 624132); type: functional;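 note: firefly luciferase luminescence from reporter carrying the Shn3 3'UTR in osteoblasts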
[27] = loss of viability in HepG2 cells – cell-based, CellTiter-Glo, cherry-picked, cytotoxicity control for Shn3 inhibitor project, dose response (AID 624134); type: functional
[28] = non-specific 3'UTR reporter inhibition in Clone20-Shn3RL – cell-based, Renilla luciferase, cherry-picked, counter-screen for Shn3 inhibitor project, dose response (AID 624133); type: functional

CN(C)CCCNc1ncnc2c1c(-c1ccccc1)cn2-c1ccccc1
IC50 [1]: 23.9 µM (active)
CC50 [2]: > 25 µM (active)

O=C(N/N=C/c1cccnc1)c1ccc(NC(=O)C(c2ccccc2)c2ccccc2)cc1
EC50 [3]: > 150 µM (not active)
EC50 [4]: 0.949 µM (inconclusive)
EC50 [5]: > 150 µM (not active)
EC50 [6]: > 150 µM (not active)
EC50 [7]: 40.8 µM (inactive)
EC50 [8]: > 66.7 µM (inactive)
AC50 [9]: 0.578 µM (active)
EC50 [10]: > 99 µM (inactive)

CCN1CCN(CCNC(=O)c2ccc(/C=C3/Sc4ccccc4N(Cc4ccccc4C)C3=O)cc2)CC1
EC50 [3]: 6.6 µM (active)
EC50 [4]: 13.7 µM (active)
EC50 [5]: > 150 µM (inconclusive)
EC50 [6]: 9.43 µM (active)
EC50 [8]: > 133 µM (inconclusive)

COc1ccc(N=Nc2nc3cc(Br)c(Br)cc3n2C)c(OC)c1
AC50 [11]: 247 µM (active)
AC50 [12]: > 52 µM (inactive)

CCN(CC)C(=O)C1CCCc2c1[nH]c1ccc(Cl)cc21 (centres undefined)
IC50 [1]: 3.28 µM (active)
CC50 [2]: > 25 µM (active)

CC1CCN(c2ccc3c(c2)S(=O)(=O)c2ccccc2C3=O)CC1
AC50 [13]: 39.7 µM (active)

CCN(CC)c1ccc2cc(S(=O)(=O)c3ccc(Cl)cc3)c(=O)oc2c1
AC50 [14]: 0.246 µM (active)
AC50 [15]: 19.1 µM (active)
AC50 [11]: 10.8 µM (active)
AC50 [12]: 11.8 µM (active)
AC50 [16]: 35.7 µM (active)

CS(=O)(=O)c1ncc(Cl)c(C(=O)Nc2ccc(OC(F)F)cc2)n1
EC50 [17]: > 40 µM (inactive)
EC50 [18]: 1.52 µM (active)
IC50 [19]: 7.79 µM (active)
EC50 [20]: 4.44 µM (active)
IC50 [21]: 2.17 µM (active)
AC50 [22]: 7.88 µM (active)
AC50 [23]: 3.68 µM (active)
EC50 [24]: 3.72 µM (active)
IC50 [25]: 6.65 µM (active)
AC50 [9]: 8.07 µM (active)
AC50 [26]: 0.682 µM (active)
AC50 [27]: 22.1 µM (active)
AC50 [28]: 7.27 µM (active)

Cc1cc(C)n(-c2nnc(NC(C)(C)C)nn2)n1
AC50 [13]: 62.6 µM (active)
